Results taken from patent publication US20230181536A1, “ANTICANCER COMBINATION THERAPY WITH N-(1-ACRYLOYL-AZETIDIN-3-YL)-2-((1H-INDAZOL-3-YL)AMINO)METHYL)-1H-IMIDAZOLE-5-CARBOXAMIDE INHIBITOR OF KRAS-G12C” (TAIHO PHARMACEUTICAL CO., LTD., priority 2020, published 2023).
Counter-ions that a name gives are not always drawn.

Key:
G12C K-Ras4B (1-169) = target: T1, G12C K-Ras4B (1-169) (Homo sapiens, UniProt P01116, G12C); test: Test of compounds to determine whether they bind to KRASG12C (LC-MS compound binding rate); details: final compound concentration of 2 μM, 1 μM protein, 25° C. for 2 hours
T1 construct: G12C K-Ras4B (1-169)
Method: Test Example 1: A Test of Compounds to Determine Whether they Bind to KRASG12C
Test compounds were prepared in the form of a 10 mM DMSO solution.
Wt K-Ras4B (1-169) and G12C K-Ras4B (1-169) proteins were mixed and diluted with a buffer (1×TBS, 0.1 mM TCEP) to prepare individual 1 μM protein solutions. A 10 mM test compound was diluted tenfold with DMSO to make a 1 mM solution, and then diluted fivefold with DMSO to make a 200 μM solution. The 200 μM solution was further diluted fivefold to make a 40 μM solution. When the final compound concentration was […], 1 μL of a 200 μM test compound was added to 19 μL of a 1 μM protein solution. When the final compound concentration was 2 μM, 1 μL of a 40 μM test compound was added to 19 μL of a 1 μM protein solution. The mixtures were stored in an incubator at 25° C. for 2 hours, and 80 μL of a 1×TBS solution containing 0.2% formic acid was added thereto to end the reaction, followed by LC-MS measurement. LC-MS measurement was performed using Xevo G2-S Q-Tof manufactured by Waters, and reverse-phase chromatography was performed with a desalting column. A mass spectrum of positive ions was obtained by electrospray. For a mass spectrum, a spectrum of a polyvalent ion was collectively converted to a molecular weight by using OpenLynx software by the MaxEnt technique, and a compound binding rate was obtained from the ratio of a signal intensity that corresponds to the molecular weight of a protein to a signal intensity that corresponds to the molecular weight of a compound binding to the protein.
By obtaining the compound binding rate for wt K-Ras4B (1-169) and the compound binding rate for G12C K-Ras4B (1-169) at the same time, information of the selectivity for G12C K-Ras4B (1-169) was obtained at the same time.
The test compounds were measured at their final compound concentration of 2 μM. […] Almost none of the compounds of the disclosure bound to wt K-Ras4B (1-169). The “binding rate” (%) for each of wt K-Ras4B (1-169) and G12C K-Ras4B (1-169) refers to the ratio of the signal intensity of bound forms to the sum of the signal intensity of non-bound forms and the signal intensity of bound forms.

KRAS G12C = target: T2, KRAS G12C (Homo sapiens, UniProt P01116, G12C); test: Inhibitory activity on the KRAS G12C nucleotide (GDP-GTP) exchange reaction; assay type: biochemical; details: Bodipy FL GDP-bound KRAS G12C 25 nM; preincubation at 25° C. for 4 hours; SOS1 100 nM, GppNHp 1 μM, reaction for 30 minutes
T2 construct: KRAS G12C (amino acid region: 1-169)
Outline: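 Bodipy FL-GDP-loaded KRAS G12C (aa 1-169, 25 nM) preincubated with compound 4 h at 25 °C in pH 7.5 Tris buffer, 5% DMSO; exchange started with SOS1 (aa 564-1049, 100 nM) and 1 μM GppNHp for 30 min. Fluorescence change (ex 485/em 520 nm) normalized to DMSO and no-GppNHp controls; IC50 calculated.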

NCI-H358 cells = test: Growth inhibition activity on KRAS-G12C mutant cell line (NCI-H358) (in vitro); assay type: cell-based; details: Homo sapiens, 72 h, 3-day culture in the presence of the compound, CellTiter-Glo2.0
Method: Test Example 3: A Measurement Test of Growth Inhibition Activity on KRAS-G12C Mutant Cell Line (NCI-H358) (In Vitro) NCI-H358 cells (ATCC, Cat#: CRL-5807), which are a KRAS-G12C mutant human lung cancer cell line, were suspended in a 10% fetal bovine serum-containing RPMI1640 medium (manufactured by Fujifilm Wako Pure Chemical Corporation.). The cell suspension was seeded into each well of a 384-well flat-bottom microplate and cultured in an incubator containing 5% CO2 gas at 37° C. for 1 day. The test compound was dissolved in DMSO and diluted with DMSO to give a concentration 500 times the final concentration. The solution of the test compound in DMSO was diluted with the medium used for suspending cells and added to each well of the cell-culture plate to give a DMSO final concentration of 0.2%, followed by culture in an incubator containing 5% CO2 gas at 37° C. for another 3 days. The cell count after 3-day culture in the presence of the compound was measured using CellTiter-Glo2.0 (manufactured by Promega Corporation) in accordance with the protocol recommended by Promega Corporation. The growth inhibition rate was calculated from the following equation, and the concentration of the test compound at which 50% inhibition was achieved (IC50 (nM)) was determined. […] Growth Inhibition Rate (%)=(C−T)/(C)×100 T: the emission intensity in a well into which a test compound was added. C: the emission intensity in a well into which a test compound was not added.

| SMILES | binding rate for G12C K-Ras4B (1-169) (G12C K-Ras4B (1-169)) | IC50 (KRAS G12C) [nM] | IC50 (NCI-H358 cells) [nM] |
| --- | --- | --- | --- |
| C=CC(=O)N1C[C@@H](NC(=O)c2c(C)nc(CNc3n[nH]c4cc(Cl)c(C(C)(C)C)cc34)n2C)[C@H]1C (relative stereo) [Example 52, N-((2R *, 3R*)-1-acryloyl-2-methylazetidin-3-yl)-2-(((5-(tert-butyl)-6-chloro-1H-indazol-3-yl)amino)methyl)-1,4-dimethyl-1H-imidazole-5-carboxamide] | B (a binding rate of 60% or more and less than 80% is rated “B,”) | 38 |  |
| C=CC(=O)N1CC(NC(=O)c2c(C(F)F)nc(CNc3n[nH]c4cc(Cl)c(C(C)(C)C)cc34)n2C2CCN(C(C)C)C2)C1 (stereo not drawn) [Example 93, N-(1-acryloylazetidin-3-yl)-2-(((5-(tert-butyl)-6-chloro-1H-indazol-3-yl)amino)methyl)-4-(difluoromethyl)-1-(1-isopropylpyrrolidin-3-yl)-1H-imidazole-5-carboxamide formate] | A (a binding rate of 80% or more is rated “A,”) | 6 |  |
| C=CC(=O)N1CC(NC(=O)c2c(Cl)nc(CNc3n[nH]c4cc(Cl)c(C(C)(C)C)cc34)n2[C@@H]2CCN(CC(F)F)C2)C1 [Example 113, (R)-N-(1-acryloylazetidin-3-yl)-2-(((5-(tert-butyl)-6-chloro-1H-indazol-3-yl)amino)methyl)-4-chloro-1-(1-(2,2-difluoroethyl)pyrrolidin-3-yl)-1H-imidazole-5-carboxamide] |  | 5 | 22 |
| C=CC(=O)N1CC(NC(=O)c2c(Cl)nc(CNc3n[nH]c4cc(Cl)c(C(C)(C)C)cc34)n2[C@H]2CCN(C(C)C)C2)C1 [Example 116, (S)-N-(1-acryloylazetidin-3-yl)-2-(((5-(tert-butyl)-6-chloro-1H-indazol-3-yl)amino)methyl)-4-chloro-1-(1-isopropylpyrrolidin-3-yl)-1H-imidazole-5-carboxamide] |  | 8 |  |
| C=CC(=O)N1CC(NC(=O)c2c(Cl)nc(CNc3n[nH]c4cc(Cl)c(C(C)(C)C)cc34)n2C2CCCN(CC(F)F)C2)C1 (stereo not drawn) [Example 117, N-(1-acryloylazetidin-3-yl)-2-(((5-(tert-butyl)-6-chloro-1H-indazol-3-yl)amino)methyl)-4-chloro-1-(1-(2,2-difluoroethyl)piperidin-3-yl)-1H-imidazole-5-carboxamide] |  | 9 |  |
| C=CC(=O)N1CC(NC(=O)c2c(Cl)nc(CNc3n[nH]c4cc(Cl)c(C(C)(C)C)cc34)n2C2CCCN(C)C2)C1 (stereo not drawn) [Example 118, N-(1-acryloylazetidin-3-yl)-2-(((5-(tert-butyl)-6-chloro-1H-indazol-3-yl)amino)methyl)-4-chloro-1-(1-methylpiperidin-3-yl)-1H-imidazole-5-carboxamide] |  | 5 |  |
| C=CC(=O)N1CC(NC(=O)c2c(Cl)nc(CNc3n[nH]c4cc(Cl)c(C(C)(C)C)cc34)n2[C@@H]2CCN(CCOC)C2)C1 [Example 119, (R)-N-(1-acryloylazetidin-3-yl)-2-(((5-(tert-butyl)-6-chloro-1H-indazol-3-yl)amino)methyl)-4-chloro-1-(1-(2-methoxyethyl)pyrrolidin-3-yl)-1H-imidazole-5-carboxamide] |  | 11 |  |
| C=CC(=O)N1CC(NC(=O)c2c(Cl)nc(CNc3n[nH]c4cc(Cl)c(C(C)(C)C)cc34)n2[C@@H]2CCN(C3CC3)C2)C1 [Example 120, (R)-N-(1-acryloylazetidin-3-yl)-2-(((5-(tert-butyl)-6-chloro-1H-indazol-3-yl)amino)methyl)-4-chloro-1-(1-cyclopropylpyrrolidin-3-yl)-1H-imidazole-5-carboxamide] |  | 6 |  |
| C=CC(=O)N1CC(NC(=O)c2c(Cl)nc(CNc3n[nH]c4cc(Cl)c(C(C)(C)C)cc34)n2[C@@H]2CCN(C3COC3)C2)C1 [Example 121, (R)-N-(1-acryloylazetidin-3-yl)-2-(((5-(tert-butyl)-6-chloro-1H-indazol-3-yl)amino)methyl)-4-chloro-1-(1-(oxetan-3-yl)pyrrolidin-3-yl)-1H-imidazole-5-carboxamide] |  | 5 |  |
| C=CC(=O)N1CC(NC(=O)c2c(Cl)nc(CNc3n[nH]c4cc(Cl)c(C(C)(C)C)cc34)n2[C@@H]2CCN(Cc3ccccc3)C2)C1 [Example 122, (R)-N-(1-acryloylazetidin-3-yl)-1-(1-benzylpyrrolidin-3-yl)-2-(((5-(tert-butyl)-6-chloro-1H-indazol-3-yl)amino)methyl)-4-chloro-1H-imidazole-5-carboxamide] |  | 6 |  |
| C=CCN1CC[C@@H](n2c(CNc3n[nH]c4cc(Cl)c(C(C)(C)C)cc34)nc(Cl)c2C(=O)NC2CN(C(=O)C=C)C2)C1 [Example 123, (R)-N-(1-acryloylazetidin-3-yl)-1-(1-allylpyrrolidin-3-yl)-2-(((5-(tert-butyl)-6-chloro-1H-indazol-3-yl)amino)methyl)-4-chloro-1H-imidazole-5-carboxamide] |  | 9 |  |
| C=CC(=O)N1CC(NC(=O)c2c(Cl)nc(CNc3n[nH]c4cc(Cl)c(C(C)(C)C)cc34)n2[C@@H]2CCN(c3ccccn3)C2)C1 [Example 124, (R)-N-(1-acryloylazetidin-3-yl)-2-(((5-(tert-butyl)-6-chloro-1H-indazol-3-yl)amino)methyl)-4-chloro-1-(1-(pyridin-2-yl)pyrrolidin-3-yl)-1H-imidazole-5-carboxamide] |  | 6 |  |
| C=CC(=O)N1CC(NC(=O)c2c(Cl)nc(CNc3n[nH]c4cc(Cl)c(C(C)(C)C)cc34)n2[C@@H]2CCN(CC(F)F)[C@H]2C)C1 [Example 125, N-(1-acryloylazetidin-3-yl)-2-(((5-(tert-butyl)-6-chloro-1H-indazol-3-yl)amino)methyl)-4-chloro-1-((2S,3R)-1-(2,2-difluoroethyl)-2-methylpyrrolidin-3-yl)-1H-imidazole-5-carboxamide] |  | 13 |  |
| C=CC(=O)N1CC(NC(=O)c2c(Cl)nc(CNc3n[nH]c4cc(Cl)c(C(C)(C)C)cc34)n2[C@@H]2C[C@@H](C)N(CC(F)F)C2)C1 [Example 126, N-(1-acryloylazetidin-3-yl)-2-(((5-(tert-butyl)-6-chloro-1H-indazol-3-yl)amino)methyl)-4-chloro-1-((3R,5R)-1-(2,2-difluoroethyl)-5-methylpyrrolidin-3-yl)-1H-imidazole-5-carboxamide] |  | 4 |  |
| C=CC(=O)N1CC(NC(=O)c2ccc(CNc3n[nH]c4cc(Cl)c(C(C)(C)C)cc34)o2)C1 [Reference Example 2, N-(1-acryloylazetidin-3-yl)-5-(((5-(tert-butyl)-6-chloro-1H-indazol-3-yl)amino)methyl)furan-2-carboxamide, reference compound] | E (a binding rate of less than 20% is rated “E.”) | > 10000 |  |
| C=CC(=O)N1CC(NC(=O)c2c(-c3ccccc3)nc(CNc3n[nH]c4cc(Cl)c(C(C)(C)C)cc34)n2C)C1 [Reference Example 3, N-(1-acryloylazetidin-3-yl)-2-(((5-(tert-butyl)-6-chloro-1H-indazol-3-yl)amino)methyl)-1-methyl-4-phenyl-1H-imidazole-5-carboxamide, reference compound] | E (a binding rate of less than 20% is rated “E.”) | > 10000 |  |
